Laboratory results from patent publication US12421225B2, “Heteroaromatic amide derivative and medicament containing the same” (KAKEN PHARMACEUTICAL CO., LTD., priority 2018, dated 2025).

These compounds were tested against human Nav1.7 (Homo sapiens (Human), UniProt Q15858) (assay: Human Nav1.7 inhibitory activity evaluation (automated patch clamp QPatch16X, HEK293A cells stably expressing human Nav1.7 and human Navβ1)). Conditions: HEK293A cells stably expressing human Nav1.7 and human Navβ1, automated patch clamp QPatch16X.
Chain of human Nav1.7 (Q15858 whole entry): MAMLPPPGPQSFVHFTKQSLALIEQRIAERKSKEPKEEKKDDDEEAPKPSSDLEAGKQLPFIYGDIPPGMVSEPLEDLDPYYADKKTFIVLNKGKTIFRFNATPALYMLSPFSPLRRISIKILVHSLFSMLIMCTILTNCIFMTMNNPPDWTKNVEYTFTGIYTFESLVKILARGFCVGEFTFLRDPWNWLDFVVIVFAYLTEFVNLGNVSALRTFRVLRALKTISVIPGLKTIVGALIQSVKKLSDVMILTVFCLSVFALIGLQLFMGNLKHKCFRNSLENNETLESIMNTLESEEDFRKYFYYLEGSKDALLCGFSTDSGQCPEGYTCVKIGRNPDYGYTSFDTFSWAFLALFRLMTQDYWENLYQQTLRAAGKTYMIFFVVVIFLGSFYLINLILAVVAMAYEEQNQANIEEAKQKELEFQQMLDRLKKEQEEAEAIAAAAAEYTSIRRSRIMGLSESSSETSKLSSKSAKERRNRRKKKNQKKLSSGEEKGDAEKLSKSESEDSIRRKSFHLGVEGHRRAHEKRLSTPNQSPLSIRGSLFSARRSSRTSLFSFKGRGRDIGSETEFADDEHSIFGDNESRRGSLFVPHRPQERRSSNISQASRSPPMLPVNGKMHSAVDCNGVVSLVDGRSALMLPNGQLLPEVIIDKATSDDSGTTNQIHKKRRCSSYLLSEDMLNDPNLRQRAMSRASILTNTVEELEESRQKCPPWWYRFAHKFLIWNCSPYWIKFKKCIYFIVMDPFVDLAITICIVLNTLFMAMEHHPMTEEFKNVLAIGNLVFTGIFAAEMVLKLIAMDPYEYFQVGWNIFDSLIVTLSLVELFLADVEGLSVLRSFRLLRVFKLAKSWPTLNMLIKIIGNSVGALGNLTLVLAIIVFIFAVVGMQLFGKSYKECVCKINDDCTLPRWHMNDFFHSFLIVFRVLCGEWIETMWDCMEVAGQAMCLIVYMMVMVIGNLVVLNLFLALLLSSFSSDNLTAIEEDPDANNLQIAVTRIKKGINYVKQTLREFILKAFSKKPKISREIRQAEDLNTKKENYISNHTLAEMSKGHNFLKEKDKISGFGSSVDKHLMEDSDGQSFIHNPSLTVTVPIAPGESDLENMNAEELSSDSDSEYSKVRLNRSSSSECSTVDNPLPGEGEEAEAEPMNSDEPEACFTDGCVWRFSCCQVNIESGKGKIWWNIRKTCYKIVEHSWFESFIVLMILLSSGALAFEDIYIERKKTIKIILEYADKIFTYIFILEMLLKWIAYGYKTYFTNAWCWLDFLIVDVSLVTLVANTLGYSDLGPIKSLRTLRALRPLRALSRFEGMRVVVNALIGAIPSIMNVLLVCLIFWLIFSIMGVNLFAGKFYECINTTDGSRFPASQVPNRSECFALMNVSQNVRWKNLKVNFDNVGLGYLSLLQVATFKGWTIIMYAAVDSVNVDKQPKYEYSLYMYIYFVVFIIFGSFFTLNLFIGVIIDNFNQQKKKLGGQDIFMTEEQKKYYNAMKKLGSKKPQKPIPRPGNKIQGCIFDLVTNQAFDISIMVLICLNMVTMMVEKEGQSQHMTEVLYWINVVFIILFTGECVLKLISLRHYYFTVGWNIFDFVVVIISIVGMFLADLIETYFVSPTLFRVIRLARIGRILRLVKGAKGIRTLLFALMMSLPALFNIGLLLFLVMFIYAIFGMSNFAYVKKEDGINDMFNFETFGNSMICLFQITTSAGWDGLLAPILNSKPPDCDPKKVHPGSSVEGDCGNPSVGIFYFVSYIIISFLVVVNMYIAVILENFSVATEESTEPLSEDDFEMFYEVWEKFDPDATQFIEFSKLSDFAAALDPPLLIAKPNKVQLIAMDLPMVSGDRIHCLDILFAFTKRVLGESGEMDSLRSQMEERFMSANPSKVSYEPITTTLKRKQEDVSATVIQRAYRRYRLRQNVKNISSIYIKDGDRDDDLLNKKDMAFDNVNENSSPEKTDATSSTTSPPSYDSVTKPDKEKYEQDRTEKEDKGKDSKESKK
Chain of human Nav1.7 (Q07699 19-218 partner): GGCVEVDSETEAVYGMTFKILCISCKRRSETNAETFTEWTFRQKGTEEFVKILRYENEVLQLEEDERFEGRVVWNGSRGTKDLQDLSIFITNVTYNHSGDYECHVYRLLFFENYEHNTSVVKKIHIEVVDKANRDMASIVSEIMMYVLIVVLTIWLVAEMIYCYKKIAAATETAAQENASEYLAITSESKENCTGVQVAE
Assay type: cell-based
Procedure: Test Example 1: Human Nav1.7 Inhibitory Activity Evaluation
A cell line in which human Nav1.7 and human Navβ1 subunits were stably expressed in HEK293A cells was used. Dulbecco's Modified Eagle Medium (DMEM) supplemeted with 10% fetal bovine serum, 600 μg/ml geneticin, and 2 μg/ml blasticidin S were used as culture medium under the conditions of 37° C. and 5% CO2 in T175 flasks to carry out culturing. When 60-80% confluence was reached, the cells were detached and a cell suspension of about 0.5-5.0×10^6 cells/mL was prepared. The amount of current through human Nav1.7 was recorded using a fully automatic patch clamp device QPatch16X (Sophion Biosciences) at room temperature. As the extracellular solution, the solution of 145 mM NaCl, 4 mM KCl, 1 mM MgCl2, 2 mM CaCl2, 10 mM Glucose, 10 mM 4-(2-hydroxyethyl)-1-piperazine ethanesulfonic acid (HEPES) at pH 7.4 was used. As the intracellular solution, the solution of 135 mM CsF, ⅕ mM glycol ether diaminetetraacetic acid (EGTA)/CsOH, 10 mM HEPES, 10 mM NaCl at pH 7.3 was used. The test compounds were dissolved in dimethyl sulfoxide (DMSO) and diluted with the extracellular solution to attain the DMSO concentration of 0.1% at the time of assay.
The current response was obtained at a sampling frequency of 25 kHz, and noise was removed with a 3 kHz low-pass filter. The holding potential was −100 mV. Correction of the leakage current was carried out by applying a step pulse of −120 mV before the test pulse. In order to investigate inhibitory action of the test compound, the following test pulse was given: Namely, after depolarizing pulse of −10 mV was applied for 50 milliseconds, it was fixed at −120 mV for 500 milliseconds; a potential at which about 30-40% of the channel was inactivated was maintained for 15 seconds, then fixed again at −120 mV for 100 milliseconds, and finally a −10 mV depolarization pulse was given for 50 milliseconds. Test pulses were given before and after the test compound addition.
The inhibitory activity of the test compound was determined based on the amount of inward current generated by the second depolarization pulse, and the 50% inhibitory concentration (IC50) was calculated from the concentration-response curve.
For `O=C(N[C@H]1COc2ccccc2C1)c1cn2c(n1)CCC(NCc1ccccc1)C2` (some centres unmarked) [Example 42], the IC50 was < 10 µM.
In the case of `O=C(N[C@H]1COc2ccc(Cl)cc2C1)c1nc2n(c1-c1ccccn1)CCCC2` [Example 18, (R)—N-(6-chlorochroman-3-yl)-3-(pyridin-2-yl)-5,6,7,8-tetrahydroimidazo[1,2-a]pyridine-2-carboxamide], the IC50 is reported as < 1 µM.
With `CN1Cc2nc(C(=O)N3CC(Oc4cccc(C(F)(F)F)n4)C3)cn2CC1c1ccccc1` (centres unmarked) [Example 63] the IC50 was < 10 µM.
In the case of `O=C(N[C@H]1COc2ccccc2C1)c1cn2c(n1)CNC(c1ccccc1)C2` (some centres unmarked) [Example 56], the IC50 is reported as < 10 µM.

Same assay, conditions: human Nav1.7, automated patch clamp
With `O=C(N[C@H]1COc2ccc(C(F)(F)F)cc2C1)c1nn2c(c1-c1ccn[nH]1)COCC2` [Example 259, (R)-3-(1H-pyrazol-5-yl)-N-(6-(trifluoromethyl)chroman-3-yl)-6,7-dihydro-4H-pyrazolo[5,1-c][1,4]oxazine-2-carboxamide] the IC50 was < 1 µM.
For `O=C(N[C@H]1COc2ccc(CC(F)F)cc2C1)c1cc2n(n1)CC(CCOC1CCC1)O2` (some centres unmarked) [Example 471], the IC50 was < 1 µM.
With `N#Cc1ccc2c(c1)C[C@@H](NC(=O)c1cc3n(n1)CCC(COC1CC(F)C1)O3)CO2` (some centres unmarked) [Example 439] the IC50 was < 10 µM.
In the case of `O=C(N[C@H]1COc2ccc(C(F)(F)F)cc2C1F)c1cc2n(n1)CCN(C1COC1)C2` (some centres unmarked) [Example 643], the IC50 is reported as < 10 µM.
For `O=C(N[C@H]1COc2ccc(-c3cnn(CC(F)(F)F)c3)cc2C1)c1cc2n(n1)CCC(COCC1CC1)O2` (some centres unmarked) [Example 430], the IC50 was < 1 µM.
In the case of `CCC(F)(CC)C1CCc2nc(C(=O)N[C@H]3COc4ccccc4C3)cn2C1` (some centres unmarked) [Example 319], the IC50 is reported as < 10 µM.
In the case of `COC(C)(C)C#CC1CCn2nc(C(=O)N[C@H]3COc4ccc(C#N)cc4C3)cc2O1` (some centres unmarked) [Example 394], the IC50 is reported as < 10 µM.
With `O=C(N[C@H]1COc2ccc(COCC(F)(F)F)cc2C1)c1cc2n(n1)CCC(C(F)F)O2` (single isomer, unassigned) [163 (isomer B)] the IC50 was < 10 µM.
For `O=C(N[C@H]1COc2ccc(C(F)(F)F)cc2C1)c1nn2c(c1-c1ccn[nH]1)OCCC2` [Example 486], the IC50 was < 1 µM.
With `O=C(N[C@H]1COc2ccc(C(F)(F)F)cc2C1O)c1cc2n(n1)CCN(CCOCC1CC1)C2` (some centres unmarked) [Example 652] the IC50 was < 10 µM.
For `O=C(N[C@H]1COc2ccc(Cl)cc2C1)c1cc2n(n1)CCC(C(F)F)O2` (single isomer, unassigned) [158 (isomer B)], the IC50 was < 10 µM.
For `O=C(N[C@H]1COc2ccc(CC(F)F)cc2C1)c1cc2n(n1)CC(COC(F)(F)F)O2` (single isomer, unassigned) [198 (isomer A)], the IC50 was < 10 µM.
For `N#Cc1ccc2c(c1)C[C@@H](NC(=O)c1cc3n(n1)CCC(COCCOCC(F)(F)F)O3)CO2` (some centres unmarked) [Example 664], the IC50 was < 10 µM.
For `O=C(N[C@H]1COc2ccc(C(F)(F)F)cc2C1F)c1cc2n(n1)CCN(CCOC1CCC1)C2` (some centres unmarked) [Example 625], the IC50 was < 1 µM.
In the case of `O=C(N[C@H]1COc2ccc(CC(F)F)cc2C1)c1cc2n(n1)CC(CCOC(F)(F)F)O2` (some centres unmarked) [Example 210], the IC50 is reported as < 1 µM.
In the case of `N#Cc1ccc2c(c1)C[C@@H](NC(=O)c1cc3n(n1)CCC(C1CCC1)O3)CO2` (some centres unmarked) [Example 388], the IC50 is reported as < 1 µM.
For `C=Cc1cccc2c1CC(NC(=O)c1cn3c(n1)CCC(C(F)(F)F)C3)CO2` (centres unmarked) [Example 293], the IC50 was < 10 µM.
In the case of `O=C(N[C@H]1COc2ccc(C(F)(F)F)cc2C1F)c1cc2n(n1)CCN(CC1CCOCC1)C2` (some centres unmarked) [Example 642], the IC50 is reported as < 10 µM.
In the case of `CC(C)(F)C1CCn2nc(C(=O)N[C@H]3COc4ccc(Cl)cc4C3)cc2O1` (some centres unmarked) [Example 166], the IC50 is reported as < 1 µM.
`O=C(N[C@H]1COc2ccc(C(F)(F)F)cc2C1)c1cc2n(n1)CCN(CCOCC(F)(F)F)C2` [Example 644] was tested, and the IC50 was < 1 µM.
In the case of `N#Cc1ccc2c(c1)C[C@@H](NC(=O)c1cc3n(n1)CCC(CCOC(F)(F)F)O3)CO2` (single isomer, unassigned) [144 (isomer A)], the IC50 is reported as < 1 µM.
With `CCOCc1cccc2c1CC(NC(=O)c1cn3c(n1)CCC(C(F)(F)F)C3)CO2` (centres unmarked) [Example 296] the IC50 was < 10 µM.
With `O=C(N[C@H]1COc2ccc(COCC(F)(F)F)cc2C1)c1cc2n(n1)CCC1(CC1)CO2` [Example 545] the IC50 was < 1 µM.
For `O=C(N[C@H]1COc2ccc(CC(F)F)cc2C1)c1cc2n(n1)C[C@H](CC1CCOCC1)O2` (single isomer, unassigned; isomer a) [590(isomer A)], the IC50 was < 1 µM.
For `O=C(N[C@H]1COc2ccc(-c3cnccn3)cc2C1)c1cc2n(n1)CCC(COCC1(C(F)(F)F)CC1)O2` (some centres unmarked) [Example 435], the IC50 was < 1 µM.
In the case of `O=C(N[C@H]1COc2ccc(CCOC(F)(F)F)cc2C1)c1cc2n(n1)CC(CCN1CC(F)(F)C1)O2` (single isomer, unassigned) [240 (isomer A)], the IC50 is reported as < 10 µM.
With `O=C(N[C@H]1COc2ccc(C(F)(F)F)cc2C1)c1cc2n(n1)CCC(COCCOCC(F)(F)F)O2` (some centres unmarked) [Example 663] the IC50 was < 1 µM.
With `O=C(N[C@H]1COc2ccc(CC(F)(F)F)cc2C1)c1cc2n(n1)CC(COCC(F)(F)F)O2` (some centres unmarked) [Example 191] the IC50 was < 1 µM.
In the case of `O=C(N[C@H]1COc2ccc(C(F)(F)F)cc2C1)c1cc2n(n1)CCC(C(F)F)O2` (single isomer, unassigned) [161 (isomer B)], the IC50 is reported as < 10 µM.
In the case of `N#Cc1ccc2c(c1)C[C@@H](NC(=O)c1nc3n(c1-c1cccc(Cl)n1)CCOC3)CO2` [Example 341], the IC50 is reported as < 1 µM.
For `O=C(N[C@H]1COc2ccc(C(F)(F)F)cc2C1F)c1cc2n(n1)CCN(C1CCOC1)C2` (some centres unmarked) [Example 670], the IC50 was < 1 µM.
In the case of `CCC1(O)CCn2nc(C(=O)N[C@H]3COc4ccc(C(F)(F)F)cc4C3)cc2OC1` (some centres unmarked) [Example 582], the IC50 is reported as < 10 µM.
`O=C(N[C@H]1COc2ccc(Cl)cc2C1)c1cc2n(n1)CCC(COC(F)(F)F)O2` (some centres unmarked) [Example 420] was tested, and the IC50 was < 1 µM.
In the case of `O=C(NC1COc2ccccc2C1)c1cc2n(n1)CCN(c1ccc(F)cc1)C2` (centres unmarked) [Example 508], the IC50 is reported as < 1 µM.
In the case of `N#Cc1ccc2c(c1)C[C@@H](NC(=O)c1cc3n(n1)CCN(C1CCCC1)C3)CO2` [Example 271], the IC50 is reported as < 10 µM.
For `O=C(c1cc2n(n1)CCC(COCC1COC1)O2)N(CC1COC1)[C@H]1COc2ccc(-c3ccccn3)cc2C1` (some centres unmarked) [Example 414], the IC50 was < 10 µM.
With `O=C(NC1COc2ccc(F)c(F)c2C1)c1cc2n(n1)CC(CCOCC1CC1)O2` (centres unmarked) [Example 639] the IC50 was < 1 µM.
In the case of `N#Cc1ccc2c(c1)C[C@@H](NC(=O)c1cc3n(n1)CC(COCCOCC(F)(F)F)O3)CO2` (some centres unmarked) [Example 659], the IC50 is reported as < 10 µM.
With `CC1(COCC2CC2)Cn2nc(C(=O)N[C@H]3COc4ccc(C#N)cc4C3)cc2O1` (some centres unmarked) [Example 618] the IC50 was < 10 µM.
For `O=C(N[C@H]1COc2ccc(C(F)(F)F)cc2C1O)c1cc2n(n1)CCC(OCCOCC(F)(F)F)CO2` (single isomer, unassigned) [Example 681], the IC50 was < 10 µM.
In the case of `N#CC1(COCC2CCn3nc(C(=O)N[C@H]4COc5ccc(C(F)(F)F)cc5C4)cc3O2)CC1` (some centres unmarked) [Example 553], the IC50 is reported as < 10 µM.
For `O=C(N[C@H]1COc2ccc(-c3ccncc3)cc2C1)c1cc2n(n1)CCC(C(F)(F)F)O2` (some centres unmarked) [Example 376], the IC50 was < 10 µM.
With `N#CC1(COCC2CCn3nc(C(=O)N[C@H]4COc5ccc(C(F)(F)F)cc5C4)cc3O2)CC1` (single isomer, unassigned) [554 (isomer B)] the IC50 was < 10 µM.
`CC(C)C1CCn2nc(C(=O)N[C@H]3COc4ccc(C#N)cc4C3)cc2O1` (some centres unmarked) [Example 393] was tested, and the IC50 was < 10 µM.
With `CC1(C)Cn2nc(C(=O)N[C@H]3COc4ccc(C(F)(F)F)cc4C3)c(-c3ccn[nH]3)c2O1` [Example 250] the IC50 was < 10 µM.
With `CCC1CCn2nc(C(=O)N[C@H]3COc4ccc(C(F)(F)F)nc4C3)cc2O1` (some centres unmarked) [Example 549] the IC50 was < 10 µM.
In the case of `CC1(C)CCn2nc(C(=O)N[C@H]3COc4ccc(-c5ccc(C#N)nc5)cc4C3)cc2O1` [Example 179], the IC50 is reported as < 10 µM.
`CC1(C)CCn2nc(C(=O)N[C@H]3COc4ccc(CCOC(F)(F)F)cc4C3)cc2O1` [Example 403] was tested, and the IC50 was < 1 µM.
With `O=C(N[C@H]1COc2ccc(Cl)cc2C1)c1cc2n(n1)CCC(C#CC1CC1)O2` (some centres unmarked) [Example 406] the IC50 was < 1 µM.
For `O=C(N[C@H]1COc2cc(C(F)(F)F)nn2C1)c1cc2n(n1)CCC(c1ccccc1F)O2` (some centres unmarked) [Example 537], the IC50 was < 10 µM.
In the case of `O=C(NC1COc2ccc(C(F)(F)F)cc2C1)c1cc2n(n1)CCN(CCC1CC1)C2` (centres unmarked) [Example 264], the IC50 is reported as < 1 µM.
For `O=C(N[C@H]1COc2ccc(C(F)(F)F)cc2C1F)c1cc2n(n1)CCC(COCC(F)F)O2` (some centres unmarked) [Example 624], the IC50 was < 1 µM.
With `O=C(N[C@H]1COc2ccc(CCOC(F)(F)F)cc2C1)c1nc2n(c1-c1ccccn1)CCCC2` [Example 306] the IC50 was < 1 µM.
`COc1ncc(-c2ccc3c(c2)C[C@@H](NC(=O)c2cc4n(n2)CCC(C(F)(F)F)O4)CO3)cn1` (some centres unmarked) [Example 176] was tested, and the IC50 was < 10 µM.
In the case of `N#Cc1ccc2c(c1)C[C@@H](NC(=O)c1cc3n(n1)CCC(C#Cc1ccccc1)O3)CO2` (some centres unmarked) [Example 390], the IC50 is reported as < 10 µM.
